IC50 data for one compound are collected here from patent US8466193B2, “Selective inhibitors of histone deacetylase” (Pharmacyclics, Inc., priority 2008, dated 2013).

In one assay the target is HDAC1 (Homo sapiens, UniProt Q13547). As to the kind of experiment: Histone deacetylase activity, continuous trypsin-coupled assay. Format: biochemical. The following applies: 15 minutes preincubation; substrate acetyl-Gly-Ala-(N-acetyl-Lys)-AMC.
The next assay addresses T1, HDAC6 (Homo sapiens, UniProt Q9UBN7).
T1 sequence (Q9UBN7 1-1215): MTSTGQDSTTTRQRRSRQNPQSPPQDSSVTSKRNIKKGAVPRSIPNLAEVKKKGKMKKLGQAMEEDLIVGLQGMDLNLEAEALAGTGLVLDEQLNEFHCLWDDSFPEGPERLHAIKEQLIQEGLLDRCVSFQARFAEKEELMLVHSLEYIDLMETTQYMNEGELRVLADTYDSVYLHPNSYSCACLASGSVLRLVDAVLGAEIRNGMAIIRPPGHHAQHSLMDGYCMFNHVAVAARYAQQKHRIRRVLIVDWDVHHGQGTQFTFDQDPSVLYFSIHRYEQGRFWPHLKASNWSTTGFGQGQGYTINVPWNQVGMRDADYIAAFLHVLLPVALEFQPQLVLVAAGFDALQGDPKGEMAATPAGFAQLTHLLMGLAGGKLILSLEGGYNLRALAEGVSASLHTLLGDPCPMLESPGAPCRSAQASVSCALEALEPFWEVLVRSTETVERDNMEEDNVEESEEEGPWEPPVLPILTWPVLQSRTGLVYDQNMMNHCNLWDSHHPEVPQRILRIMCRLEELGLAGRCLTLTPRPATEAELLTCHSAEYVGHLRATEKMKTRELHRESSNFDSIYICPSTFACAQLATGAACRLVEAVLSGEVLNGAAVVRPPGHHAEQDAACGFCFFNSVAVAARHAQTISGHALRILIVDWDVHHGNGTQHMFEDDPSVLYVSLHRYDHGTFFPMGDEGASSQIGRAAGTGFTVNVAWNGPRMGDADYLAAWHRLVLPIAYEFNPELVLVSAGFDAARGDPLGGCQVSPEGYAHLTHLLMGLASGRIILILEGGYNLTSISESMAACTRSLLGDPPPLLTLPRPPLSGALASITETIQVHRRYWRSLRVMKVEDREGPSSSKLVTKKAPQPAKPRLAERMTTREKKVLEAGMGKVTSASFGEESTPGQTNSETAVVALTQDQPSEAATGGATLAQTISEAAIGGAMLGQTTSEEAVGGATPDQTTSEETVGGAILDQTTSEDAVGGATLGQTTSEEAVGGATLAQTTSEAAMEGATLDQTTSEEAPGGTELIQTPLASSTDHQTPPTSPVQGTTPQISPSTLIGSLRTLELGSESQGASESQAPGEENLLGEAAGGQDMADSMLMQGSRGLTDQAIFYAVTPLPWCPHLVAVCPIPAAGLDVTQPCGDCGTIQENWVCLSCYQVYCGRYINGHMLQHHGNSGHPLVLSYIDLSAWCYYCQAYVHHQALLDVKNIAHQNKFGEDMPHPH
The assay is described as above. Format: biochemical. As to conditions: 15 minutes preincubation; substrate acetyl-Gly-Ala-(N-acetyl-Lys)-AMC.

HDAC1, sequence (Q13547 whole entry, species assumed): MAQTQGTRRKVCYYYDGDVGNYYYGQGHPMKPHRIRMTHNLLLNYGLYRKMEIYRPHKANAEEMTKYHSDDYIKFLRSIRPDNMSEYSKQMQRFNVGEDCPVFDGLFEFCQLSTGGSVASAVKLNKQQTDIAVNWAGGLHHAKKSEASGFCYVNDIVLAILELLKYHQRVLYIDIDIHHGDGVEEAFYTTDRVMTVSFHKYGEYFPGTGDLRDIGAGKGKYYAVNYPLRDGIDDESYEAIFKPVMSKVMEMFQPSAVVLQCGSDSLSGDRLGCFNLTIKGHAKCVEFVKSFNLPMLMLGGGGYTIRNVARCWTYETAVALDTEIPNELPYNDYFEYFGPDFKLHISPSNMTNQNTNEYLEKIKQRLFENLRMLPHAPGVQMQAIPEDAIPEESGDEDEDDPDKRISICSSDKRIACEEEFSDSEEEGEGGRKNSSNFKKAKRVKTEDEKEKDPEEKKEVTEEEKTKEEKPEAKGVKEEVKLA

Take `O=C(NO)c1ccc2ccn(CCOc3ccccc3)c2c1` [Compound 316, N-hydroxy-1-(2-phenoxyethyl)-1H-indole-6-carboxamide]: the 50% inhibitory concentration (IC50) against HDAC1 and at HDAC6 was greater than 10 µM each time.
